Literature values, collected in patent US6761903B2, “Clear oil-containing pharmaceutical compositions containing a therapeutic agent” (Lipocine, Inc., priority 1999, dated 2004).

Details: as reported by the manufacturer of the commercial product, rough average or inventors' judgment

For “1,2 and 1,3-diolein [1,2 and 1,3-diolein (C18:1)]”, the HLB is listed as less than 10.

For `CCCCC/C=C\C/C=C\CCCCCCCC(=O)OCC` [Ethyl linoleate], the HLB is given as less than 10.

For `CCCCCCCC/C=C\CCCCCCCC(=O)OCC` [Ethyl oleate], the HLB is given as less than 10.

For `CCCCC/C=C\C/C=C\CCCCCCCC(=O)OCC(O)CO` (stereo not shown) [Glycerol monolinoleate], the HLB is listed as 3-4.

In the case of `CCCCCCCCCCCCCCCC(=O)OCC(O)CO` (stereo not shown) [Glycerol monopalmitate], the HLB is given as 4.

For `CCCCCCCCCCCCCCCCCC(=O)OCC(O)CO` (stereo not shown) [Glycerol monostearate], the HLB is given as 5-9.

For `CC(=O)OCC(O)CO` (stereo not shown) [Glyceryl acetate], the HLB is given as less than 10.

For `CCCCCCCC(=O)OCC(O)CO` (stereo not shown) [Glyceryl caprylate], the HLB is given as 5-6.

In the case of `CCCCCCCCCCCC(=O)OCC(O)CO` (stereo not shown) [Glyceryl laurate], the HLB is listed as 4.

For `CCCCCCCCCCCC(=O)OCC(O)CO` (stereo not shown) [Glyceryl monolaurate], the HLB is listed as 6.8.

For `CCCCCCCCCCCCCC(=O)OCC(O)CO` (stereo not shown) [Glyceryl monomyristate (C14), Glyceryl monomyristate], the HLB is listed as 3-4.

In the case of `CCCCCCCC/C=C\CCCCCCCC(=O)OCC(O)CO` (stereo not shown) [Glyceryl monooleate (C18:1), Glyceryl monooleate], the HLB is given as 3-4.

For `CCCCCCCCCCCCCCCCCC(=O)OCC(O)CO` (stereo not shown) [Glyceryl monostearate], the HLB is listed as 4.4.

In the case of `CCCCCC[C@@H](O)C/C=C\CCCCCCCC(=O)OCC(O)CO` (stereo partly shown) [Glyceryl ricinoleate], the HLB is given as 6.

In the case of `CCCCC/C=C\C/C=C\CCCCCCCC(=O)OC(C)C` [Isopropyl linoleate], the HLB is given as less than 10.

For `CCCCCCCCCCCCCC(=O)OC(C)C` [Isopropyl myristate], the HLB is listed as less than 10.

For `CCCCCCCCCC(=O)OCC(O)CO` (stereo not shown) [Monocaprin], the HLB is given as less than 10.

For `CCCCCC(=O)OCC(O)CO` (stereo not shown) [Monocaproin (C6), Monocaproin], the HLB is listed as less than 10.

For `CCCCCCCC(=O)OCC(O)CO` (stereo not shown) [Monocaprylin], the HLB is listed as less than 10.

For `CCCCCCCC/C=C/CCCCCCCC(=O)OCC(O)CO` (stereo not shown) [Monoelaidin (C18:1), Monoelaidin], the HLB is given as less than 10.

In the case of `CCCCCCCCCCCC(=O)OCC(O)CO` (stereo not shown) [Monolaurin], the HLB is listed as less than 10.

For `CCCCCC/C=C\CCCCCCCC(=O)OCC(O)CO` (stereo not shown) [Monopalmitolein (C16:1), Monopalmitolein], the HLB is listed as less than 10.

For `CCCCCCCCCCCCCCCCCC(=O)OCCO` [PEG-1 stearate], the HLB is listed as 2.

In the case of `CCCCCCCCCCCCOCCOCCOCCOCCO` [PEG-4 lauryl ether], the HLB is listed as 9.7.

For `CCCCCCCCCCCCCCCCCC(=O)OCC(CO)(CO)COC(=O)CCCCCCCCCCCCCCCCC` [Pentaerythrityl distearate], the HLB is given as less than 10.

For `CCCCCCCC/C=C\CCCCCCCC(=O)OCC(COC(=O)CCCCCCC/C=C\CCCCCCCC)(COC(=O)CCCCCCC/C=C\CCCCCCCC)COC(=O)CCCCCCC/C=C\CCCCCCCC` [Pentaerythrityl tetraoleate], the HLB is given as less than 10.

In the case of `CCCCCCCCCCCCCCCCCC(=O)OCC(COC(=O)CCCCCCCCCCCCCCCCC)(COC(=O)CCCCCCCCCCCCCCCCC)COC(=O)CCCCCCCCCCCCCCCCC` [Pentaerythrityl tetrastearate], the HLB is given as less than 10.

For `CCCCCCCCCC(=O)OCC(C)OC(=O)CCCCCCCCC` (stereo not shown) [Propylene glycol dicaprate], the HLB is listed as greater than 6.

For `CCCCCCCCCCCC(=O)OCC(C)OC(=O)CCCCCCCCCCC` (stereo not shown) [Propylene glycol dilaurate], the HLB is listed as greater than 6.

In the case of `CCCCCCCC(=O)OCC(C)OC(=O)CCCCCCC` (stereo not shown) [Propylene glycol dioctanoate], the HLB is listed as greater than 6.

For `CCCCCCCCCCCCCCCCCC(=O)OCC(C)OC(=O)CCCCCCCCCCCCCCCCC` (stereo not shown) [Propylene glycol distearate], the HLB is listed as greater than 6.

In the case of `CCCCCCCCCCCCOS(=O)(=O)[O-].[Na+]` [Sodium lauryl sulfate (dodecyl), Sodium lauryl sulfate], the HLB is given as 40.

In the case of `CCCCCCCC/C=C\CCCCCCCC(=O)[O-].[Na+]` [Sodium oleate], the HLB is given as 18.

For Caprylic/capric glycerides, the HLB is given as less than 10.

For Dicaprin [Dicaprin (C10)], the HLB is listed as less than 10.

In the case of Dicaproin [Dicaproin (C6)], the HLB is listed as less than 10.

In the case of Dielaidin [Dielaidin (C18:1)], the HLB is listed as less than 10.

In the case of Dilinolein [Dilinolein (C18:2)], the HLB is listed as less than 10.

For Dimyristin [Dimyristin (C14)], the HLB is listed as less than 10.

For Dioctanoin [Dioctanoin (C8)], the HLB is listed as less than 10.

For Dipalmitin [Dipalmitin (C16)], the HLB is given as less than 10.

In the case of Dipalmitolein [Dipalmitolein (C16:1)], the HLB is listed as less than 10.

For Distearin, the HLB is given as less than 10.

For Glycerol monooleate/linoleate, the HLB is given as 3-4.

For “Glyceryl citrate/lactate/oleate/linoleate”, the HLB is listed as less than 10.

In the case of “Glyceryl dilaurate [Glyceryl dilaurate (C12)]”, the HLB is given as 3-4.

For Glyceryl dioleate, the HLB is listed as 3-4.

In the case of Glyceryl mono-, dioleate, the HLB is listed as less than 10.

In the case of Glyceryl palmitic/stearic, the HLB is listed as less than 10.

For PEG 4-100 monolaurate, the HLB is listed as greater than 9.

For PEG 4-100 monooleate, the HLB is listed as greater than 8.

For PEG 4-100 monostearate, the HLB is listed as greater than 6.

In the case of PEG 100,200,300 monolaurate, the HLB is listed as greater than 10.

In the case of PEG 100,200,300 monooleate, the HLB is listed as greater than 10.

In the case of PEG 400 dioleate, the HLB is given as greater than 10.

For PEG 400 distearate, the HLB is listed as greater than 10.

In the case of PEG 400-1000 monostearate, the HLB is given as greater than 10.

For PEG-2 oleate, the HLB is given as 4.5.

For PEG-2 stearate, the HLB is listed as 4.

For PEG-3 oleyl ether, the HLB is listed as less than 10.

For PEG-4 dilaurate, the HLB is given as 7.

In the case of PEG-4 dioleate, the HLB is given as 6.

In the case of PEG-4 distearate, the HLB is listed as 5.

In the case of PEG-4 oleate, the HLB is listed as 8.3.

In the case of PEG-4 stearate, the HLB is given as 6.5.

In the case of PEG-5 oleate, the HLB is given as 9.5.

In the case of PEG-5 oleyl ether, the HLB is given as less than 10.

For PEG-5 soya sterol, the HLB is listed as less than 10.

For PEG-5 stearate, the HLB is listed as 9.5.

In the case of PEG-6 dilaurate, the HLB is listed as 9.8.

In the case of PEG-6 dioleate, the HLB is listed as 7.2.

In the case of PEG-6 distearate, the HLB is listed as 6.5.

For PEG-6 sorbitan monostearate, the HLB is given as 11.

In the case of PEG-6 stearate, the HLB is listed as 9.7.

In the case of PEG-7 oleate, the HLB is listed as 10.4.

For PEG-8 dioleate, the HLB is listed as 8.8.

For PEG-9 oleate, the HLB is given as greater than 10.

In the case of PEG-9 stearate, the HLB is listed as greater than 10.

In the case of PEG-10 dipalmitate, the HLB is given as greater than 10.

For PEG-10 soya sterol, the HLB is given as less than 10.

For PEG-12 dilaurate, the HLB is given as 11.7.

For PEG-12 dioleate, the HLB is listed as 10.

For PEG-12 distearate, the HLB is listed as 10.7.

In the case of PEG-12 oleate, the HLB is given as 14.

For PEG-12 ricinoleate, the HLB is listed as greater than 10.

In the case of PEG-12 stearate, the HLB is given as 14.

For PEG-15 stearate, the HLB is listed as 14.

For PEG-20 glyceryl oleate, the HLB is listed as greater than 10.

In the case of PEG-20 soya sterol, the HLB is given as less than 10.

For PEG-24 cholesterol ether, the HLB is given as greater than 10.

For PEG-25 phyto sterol, the HLB is listed as greater than 10.

In the case of PEG-30 cholestanol, the HLB is given as greater than 10.

In the case of PEG-30 glyceryl oleate, the HLB is listed as greater than 10.

In the case of PEG-30 soya sterol, the HLB is given as greater than 10.

For PEG-30 stearate, the HLB is listed as greater than 10.

In the case of PEG-40 oleate, the HLB is listed as 17.4.

In the case of PEG-40 stearate, the HLB is listed as greater than 10.

For PEG-50 stearate, the HLB is given as greater than 10.

For PEG-100 oleate, the HLB is listed as 18.8.

In the case of PEG-100 stearate, the HLB is given as 19.

In the case of PEG-200 oleate, the HLB is given as greater than 10.

In the case of PEG-400 dioleate, the HLB is given as greater than 10.

For PEG-400 distearate, the HLB is listed as greater than 10.

For PEG-400 oleate, the HLB is listed as greater than 10.

In the case of PEG-600 oleate, the HLB is listed as greater than 10.

In the case of “Pentaerythrityl tetracaprylate/tetracaprate”, the HLB is listed as less than 10.

For Pentaerythrityl tetraisostearate, the HLB is listed as less than 10.

For Phytosterol, the HLB is listed as less than 10.

In the case of Polyglyceryl-2 dioleate, the HLB is given as 7.

For Polyglyceryl-2 isostearate, the HLB is listed as 5-7.

For Polyglyceryl-2 oleate, the HLB is given as 5-7.

For Polyglyceryl-2 stearate, the HLB is given as 5-7.

For Polyglyceryl-3 dioleate, the HLB is listed as less than 10.

For Polyglyceryl-3 distearate, the HLB is listed as less than 10.

For Polyglyceryl-3 oleate, the HLB is given as 6.5.

For Polyglyceryl-4 oleate, the HLB is listed as 5-7.

In the case of Polyglyceryl-4 pentaoleate, the HLB is given as less than 10.

In the case of Polyglyceryl-4 stearate, the HLB is listed as 5-6.

In the case of Polyglyceryl-6 oleate, the HLB is given as 9.

In the case of Polyglyceryl-6 pentaoleate, the HLB is listed as less than 10.

For Polyglyceryl-6 ricinoleate, the HLB is listed as greater than 8.

For Polyglyceryl-10 decaisostearate, the HLB is given as less than 10.

In the case of Polyglyceryl-10 mono, dioleate, the HLB is given as 11.

For Polyglyceryl-10 oleate, the HLB is given as 14.

In the case of Polyglyceryl-10 pentaoleate, the HLB is given as 3.5.

For Polyglyceryl-10 septaoleate, the HLB is given as 3.

In the case of Polyglyceryl-10 tetraoleate, the HLB is given as 6.2.

For Polyglyceryl-10 trioleate, the HLB is given as 7.

In the case of Polyglyceryl-101 decaoleate, the HLB is listed as 3.5.

In the case of Propylene glycol dicaprylate/dicaprate, the HLB is listed as greater than 6.

For Sorbitan monoisostearate, the HLB is listed as 4.7.

In the case of Sorbitan monooleate, the HLB is listed as 4.3.

For Sorbitan monopalmitate, the HLB is given as 6.7.

In the case of Sorbitan monostearate, the HLB is listed as 4.7.

For Sorbitan sesquistearate, the HLB is given as 4.2.

In the case of Sorbitan trioleate, the HLB is given as 4.3.

In the case of Sucrose dipalmitate, the HLB is listed as 7.4.

In the case of Sucrose distearate, the HLB is listed as 3.

In the case of Sucrose monopalmitate, the HLB is listed as greater than 10.
